In article PMC3303619, “In Situ Absorption in Rat Intestinal Tract of Solid Dispersion of Annonaceous Acetogenins” (Gastroenterology Research and Practice, 2012):
≈ marks a conversion by molar mass, not a printed value.

Key:
[1] = system: duodenum, jejunum, ileum, and colon segment; test: SPIP in different intestinal segments; format: in vivo, Sprague-Dawley rats; settings: 300 μg/mL, values are P app × 10^3, mean ± SD, n = 6
From the text: The study followed the method described in Li et al. and Dahan and Amidon. Each 10 cm long intestinal segment was isolated as follows: duodenum segment beginning from 1 cm distal to pylorus, jejunum segment beginning from 15 cm away from pylorus, ileum segment beginning at the site 20 cm upwards caecum, while segment colon beginning at the site 2 cm distal to caecum. The above segments were carefully cannulated and ligated with both the ends. Then, each segment was perfused with solution containing different mass of ACGs.
(§1) The effective permeability (K a, P app) of the drug disappearing from the intestinal lumen during the intestinal perfusion was calculated by the steady-state equation: (1) Ka =(1−CoutQout/CinQin)Q/VPapp=[− Qin·ln (CoutQout/CinQin)]/2πrL where the radius of the gut lumen was represented by r, its length by L, and the perfusate flow rate by Q (mL/min). V presents the volume of the tested intestinal. The fraction C out/C in represents the concentration of the drμg leaving the perfused segment (C out) normalized to the concentration entering the segment (C in). The C out values were corrected for net water flux by the gravimetric method.
(§2) Once the intestinal segment reached steady state, subsequent values of C out/C in were used to calculate P app. P app represents the permeability of the compound (cm/s) as determined by the disappearance of the compound from the intestinal lumen. Steady state was assumed to be reached when C out/C in reached a constant value, as determined by direct observation of the data.

intestinal loop in rats = test: Single-pass intestinal perfusion (SPIP) in rats at different perfusate concentrations; format: in vivo, Sprague-Dawley rats; settings: values are P app × 10^3, mean ± SD, n = 6
Experimental: We used male Sprague-Dawley rats weighing 250 ± 20 g for all perfusion studies. The drug solution was prepared by dispersing the ACGs-SD in the K-R buffer solution and installed in the cylinder, which was incubated in at 37°C water bath to maintain temperature.
The in situ SPIP experiment was conducted according to the previously published reports. Firstly, six male Sprague-Dawley rats were placed in respective cages and fasted overnight before the experiment with free access to water. Rats were anesthetized with an intraperitoneal injection of pentobarbital sodium (40 mg/Kg body weight, i.p. injection), restrained in a supine position, and kept at a body temperature of 37°C using infrared lamps.
Bile duct was ligated and the intestinal content was immediately washed away with 37°C saline solution at a flow rate of 5 mL/min, by cannulating polyethylene tubings (3.2 mm diameter) using a peristaltic pump (BT00-100 M, Baoding Longer Precision Pump Co., Ltd., China). The isolated segment, duodenum, jejunum, ileum, and colon were rinsed with physiological saline to clean any residual debris until the out flowing became colorless. Then, the intestinal loop was made by ligating both ends of the intestinal loop from 4 cm below the bile duct opening to a segment above the ileocecum of small intestine of anesthetized rats. Care was taken to handle the small intestine gently in order to maintain an intact blood supply. The whole surgical area was covered with a piece of sterilized gauze wetted with physiological saline solution.
ACGs-SD was dissolved in K-R buffer solution (0.35 g KCl, 1.37 g NaHCO3, 7.8 g NaCl, 0.22 g NaH2PO4, 0.02 g MgCl2, and glucose in 1.48 g/1000 mL purified water, pH 6.5) at a concentration of 200 μg/mL, 300 μg/mL, 500 μg/mL of ACGs, and the solution was administered to the loop via the polyethylene tubing inserted into the loop. At the start of the study, the perfusion buffer containing sample solution was first perfused at a flow rate of 5 mL/min to ensure filling the segment rapidly, and the time was set to zero with the immediate start of the perfusion and the solution volume in circulation was recorded as the 0 min volume. After 10 min, when steady-state condition was achieved, the flow rate was adjusted to 0.2 mL/min, and the outlet perfused samples were collected at time intervals (5, 10, 15, 30, 60, 90, 120 min) for 2 h. During 2 h perfusion period, at each time period, assemble the outlet solution. At the end of the experiment, the length of perfused intestinal segment was measured without stretching.
as §1, §2

[2] = Stability of ACGs in K-R buffer solution; format: physicochemical; settings: ACGs-SD in K-R buffer, 37°C, n = 3
Experimental: Exact amount of ACGs-SD was dissolved in K-R buffer solution at 37°C in water bath. Chermolin-1, annonacin, squamocin, and annonin-VI were determined at 0, 30, 60, 90, and 120 min to analysis the stability of ACGs in K-R buffer solution.

[3] = Stability of sample solution during storing and preparation (freeze-thaw, room temperature, stock solution); format: physicochemical; settings: for Accuracy (mean ± SD)%, Freeze-thaw (three cycles): three freeze (−20°C) and thaw (room temperature) cycles, compared to nominal concentration
Experimental: The stability of sample solution was also tested at room temperature and 4°C, respectively, for 24 h. For freeze-thaw stability testing, the samples were determined after three freeze (−20°C) and thaw (room temperature) cycles, and the concentration was compared to their nominal concentration. For the short-term stability, the samples (three replicates at each QC concentration) were extracted and placed at room temperature for 24 h and then injected into the HPLC system for analysis.
Stock solutions of ACGs were stable for at least 30 days when stored at 4°C. No significant change was found after three freeze-thaw cycles and stored at room temperature for 24 h (Table 1).

[4] = Solubility studies in distilled water; format: physicochemical; settings: 37 °C, thermodynamic from solid, component from ACGs solid dispersion (PEG 4000), 37 ± 0.5°C
Experimental: Solubility studies were conducted by placing an excess amount of ACGs (approximately 15 mg) and ACG-solid dispersion in 10 mL distilled water, and the mixture was heated at 37 ± 0.5°C in a water bath to facilitate the solubilization using a vortex mixer. Mixtures were equilibrated at 37 ± 0.5°C for 72 h in a water bath. The equilibrated samples were centrifuged at 3000 rpm for 15 min to remove the undissolved material. The supernatant was determined by HPLC.

T24 bladder cancer cells = system: T24 bladder cancer cells; set-up: method as in PMID 16154156; settings: cytotoxicity in a Bax- and caspase-3-related pathway; cited from earlier work
complex I = system: complex I; set-up: method as in PMID 8037664; settings: mammalian mitochondria; steady-state and nonsteady-state conditions; cited from earlier work
K562 cells = system: K562 cells; set-up: method as in PMID 16310807; settings: cited from earlier work
[5] = ACGs-SD perfusate concentration 200 μg · mL^−1
[6] = ACGs-SD perfusate concentration 300 μg · mL^−1
[7] = ACGs-SD perfusate concentration 500 μg · mL^−1

## CCCCCCCCCCCC[C@@H](O)[C@H]1CC[C@H]([C@H](O)CCCC[C@H](O)CCCCC[C@@H](O)CC2=CC(C)OC2=O)O1 (some centres unmarked) [Annonacin, annonacin]
[1]; Duodenum
  P app × 10^3: 1.36 ± 0.34 cm · s^−1
[1]; Ileum
  P app × 10^3: 1.17 ± 0.49 cm · s^−1
[1]; Jejunum
  P app × 10^3: 1.38 ± 0.82 cm · s^−1
[1]; colon
  P app × 10^3: 0.95 ± 0.45 cm · s^−1
Intestinal loop in rats; [5]
  P app × 10^3: 1.29 ± 0.12 cm · s^−1
Intestinal loop in rats; [6]
  P app × 10^3: 0.92 ± 0.23 cm · s^−1
Intestinal loop in rats; [7]
  P app × 10^3: 0.69 ± 0.31 cm · s^−1
[2]; time 0 h
  Stability in K-R buffer solution, remaining: 100%
[2]; time 0.5 h
  Stability in K-R buffer solution, remaining: 98.63%
[2]; time 1 h
  Stability in K-R buffer solution, remaining: 98.59%
[2]; time 2 h
  Stability in K-R buffer solution, remaining: 96.16%
[3]
  Accuracy (mean ± SD)%, Samples at room temperature for 24 h: 96.3 ± 2.1%
  Accuracy (mean ± SD)%, Freeze-thaw (three cycles): 96.0 ± 1.0%
[4]
  solubility at 72 h: 213 µg/mL (≈ 357 µM)
T24 bladder cancer cells
  Effect on cell cycle of T24 bladder cancer cells: arrest T24 bladder cancer cells at the G1 phase

## CCCCCCCCCC[C@H](O)[C@H]1CC[C@H]([C@H]2CC[C@H]([C@H](O)CCCCCCCCCC[C@@H](O)CC3=C[C@H](C)OC3=O)O2)O1 [Annonin-VI, annonin-VI]
[1]; Duodenum
  P app × 10^3: 2.28 ± 0.29 cm · s^−1
[1]; Ileum
  P app × 10^3: 1.26 ± 0.30 cm · s^−1
[1]; Jejunum
  P app × 10^3: 1.87 ± 0.29 cm · s^−1
[1]; colon
  P app × 10^3: 1.10 ± 0.45 cm · s^−1
Intestinal loop in rats; [5]
  P app × 10^3: 0.75 ± 0.37 cm · s^−1
Intestinal loop in rats; [6]
  P app × 10^3: 0.75 ± 0.21 cm · s^−1
Intestinal loop in rats; [7]
  P app × 10^3: 0.79 ± 0.30 cm · s^−1
Complex I
  Effect on proton pumping function of complex I: inhibited the proton pumping function of complex I
[2]; time 0 h
  Stability in K-R buffer solution, remaining: 100%
[2]; time 0.5 h
  Stability in K-R buffer solution, remaining: 95.64%
[2]; time 1 h
  Stability in K-R buffer solution, remaining: 99.59%
[3]
  Accuracy (mean ± SD)%, Samples at room temperature for 24 h: 98.3 ± 2.1%
  Accuracy (mean ± SD)%, Freeze-thaw (three cycles): 99.3 ± 5.0%
[4]
  solubility at 72 h: 250 µg/mL (≈ 401 µM)

## CCCCCC[C@H](O)CCC[C@H](O)[C@H]1CC[C@H]([C@H]2CC[C@H]([C@H](O)CCCCCCCCCCCCC3=C[C@H](C)OC3=O)O2)O1 [Squamocin, squamocin]
[1]; Duodenum
  P app × 10^3: 1.24 ± 0.27 cm · s^−1
[1]; Ileum
  P app × 10^3: 1.14 ± 0.31 cm · s^−1
[1]; Jejunum
  P app × 10^3: 1.30 ± 0.27 cm · s^−1
[1]; colon
  P app × 10^3: 1.03 ± 0.19 cm · s^−1
Intestinal loop in rats; [5]
  P app × 10^3: 0.96 ± 0.28 cm · s^−1
Intestinal loop in rats; [6]
  P app × 10^3: 0.96 ± 0.27 cm · s^−1
Intestinal loop in rats; [7]
  P app × 10^3: 0.93 ± 0.32 cm · s^−1
[2]; time 0 h
  Stability in K-R buffer solution, remaining: 100%
[2]; time 0.5 h
  Stability in K-R buffer solution, remaining: 100.51%
[2]; time 1 h
  Stability in K-R buffer solution, remaining: 99.86%
[2]; time 2 h
  Stability in K-R buffer solution, remaining: 98.58%
[3]
  Accuracy (mean ± SD)%, Samples at room temperature for 24 h: 101.3 ± 6.2%
  Accuracy (mean ± SD)%, Freeze-thaw (three cycles): 101.6 ± 4.2%
[4]
  solubility at 72 h: 1080 µg/mL (≈ 1740 µM)
K562 cells
  Effect on proliferation of K562 cells: inhibit the proliferation of K562 cells via G2/M arrest
